Measured values: US20200399335A1, “MODIFIED IMMUNOMODULATORY PEPTIDE” (Aarhus Universitet, priority 2018, published 2020)
Where no end group is shown, it is not given here. The star is where a group is joined. Biotin = O=C1N[C@H]2[C@H](CS[C@H]2CCCCC(=O)*)N1

Assays:
STING activation [1] = conditions: previously shown; no details given; cited from earlier work
STING activation [2] = conditions: PBMCs of two donors with wildtype STING, peptide priming then HT-DNA, 20 hours; vs parental SEQ ID NO.6
Experimental: Both donors carried STING wildtype proteins allowing us to evaluate important amino acid positions within the polypeptide.
(§1) Peripheral Blood Mononuclear cells (PBMCs) were isolated from healthy donors by Ficoll Paque gradient centrifugation (GE Healthcare). PBMCs were cultured in RPMI complete supplemented with IL-2.
(§2) To quantify functional type I IFN the reporter cell line HEK-Blue™ IFN-α/β (InvivoGen) was utilized according to the manufacturer's instructions. […] This cell line expresses secreted embryonic alkaline phosphatase under the control of the IFN-α/β inducible ISG54 promotor. SEAP activity was assessed by measuring optical density (OD) at 620 nm on a micro plate reader (ELx808, BioTEK). The standard range was made with IFN-α (A2) (PBL Assay Science).
(§3) Protein levels of the cytokines CXCL10 and IL6 in supernatants, were measured using DuoSet ELISA kits from RnD following the manufacturer's instructions.

STING activation [3] = assay: Screening of alanine modified peptides in PMA-differentiated THP1 cells stimulated with 2′3′cGAMP; conditions: PMA-treated THP1 (STING HAQ), peptide pre-stimulation 1 hour, then 2′3′cGAMP, supernatant 20 hours; alanine variant vs SEQ ID NO.6
Source text: Screening of alanine modified peptides in THP1 cells. […] THP1 cells were differentiated into macrophages using PMA. […] Twenty hours later supernatants were harvest and used to assess the production of type I IFN (A) or CXCL10 (B). Data represent the mean±SD of biological triplicates, representative of two independent experiments
as §2, §3

HSV-1 GFP = HSV-1 GFP infection of human fibroblast, flow cytometry 48 hpi; conditions: for viral inhibition of alanine variant compared with SEQ ID NO.6 / viral inhibition: HSV-1 GFP MOI 0.05, 48 hpi
Source text: Screening of alanine modified peptides in human fibroblasts.
Data was processed in FlowJo (Tree Star)

[4] = Circular dichroism spectrum of polypeptides; type: physicochemical; conditions: in the recommended buffer
Source text: FIG. 5. CD spectra of polypeptides with specific alanine mutations.
The Example illustrate the CD spectrum of polypeptide (SEQ ID NO. 6) and two alanine mutations (SEQ ID NO. 17 and 19). […] FIG. 5.

STING activity = conditions: PBMCs from two donors, peptide pre-treatment then cGAMP; vs peptide 101
Experimental: as §1, §2, §3

human fibroblast = assay: Cell viability test in human fibroblast (CellTiter-Glo); type: cell-based; conditions: 48 hpi
Experimental: FIG. 8. Cell viability test. […] As a positive control for cell death, human fibroblast was treated with staurosporine (500 nM). Cell viability was analyzed 48 hpi.
The highest peptide concentration utilized in the present studies reached a maximum cell death percentage of less than 10%; cf. FIG. 8.
Viability tests were conducted using the CellTiter-Glo® 2.0 Assay (Promega, G9242). Each sample was conducted in technical triplicates and luminescence data analyzed.

Substance: Biotin-EDIPTLEDLAETLKKEKLKGRKKRRQRRRPQ-NH2 [S7]
- synergistic effects on STING activation (STING activation [1]): not to lead to synergistic effects on STING activation

Substance: KAYKNIVLLKGLEVINDYHF ((1)..(20) An immunomodulatory polypeptide derived from the pyrin domain of human IFI16 with amino acid residue changes.) [peptide A2]
- secretion of interleukin IL6 (STING activation [2]): very potent and synergistic effect
- secretion of the chemokine CXCL10 (STING activation [2]): partly impaired CXCL10
- synergistic effect of supporting STING activation: induction of type I IFNs (STING activation [3]): affected polypeptide synergistic effects

Substance: KKAKNIVLLKGLEVINDYHF ((1)..(20) An immunomodulatory polypeptide derived from the pyrin domain of human IFI16 with amino acid residue changes.) [peptide A3]
- secretion of interleukin IL6 (STING activation [2]): very potent and synergistic effect

Substance: KKYKNAVLLKGLEVINDYHF ((1)..(20) An immunomodulatory polypeptide derived from the pyrin domain of human IFI16 with amino acid residue changes.) [peptide A6]
- viral inhibition of alanine variant compared with SEQ ID NO.6 (HSV-1 GFP): depleted
- secretion of interleukin IL6 (STING activation [2]): prohibited the synergistic effects
- synergistic effect of supporting STING activation: induction of type I IFNs (STING activation [3]): affected polypeptide synergistic effects

Substance: KKYKNIALLKGLEVINDYHF ((1)..(20) An immunomodulatory polypeptide derived from the pyrin domain of human IFI16 with amino acid residue changes.) [peptide A7]
- viral inhibition of alanine variant compared with SEQ ID NO.6 (HSV-1 GFP): depleted
- secretion of interleukin IL6 (STING activation [2]): prohibited the synergistic effects

Substance: KKYKNIVALKGLEVINDYHF ((1)..(20) An immunomodulatory polypeptide derived from the pyrin domain of human IFI16 with amino acid residue changes.) [peptide A8]
- synergistic effect of supporting STING activation: induction of type I IFNs (STING activation [3]): affected polypeptide synergistic effects

Substance: KKYKNIVLAKGLEVINDYHF ((1)..(20) An immunomodulatory polypeptide derived from the pyrin domain of human IFI16 with amino acid residue changes.) [peptide A9]
- synergistic effect of supporting STING activation: induction of type I IFNs (STING activation [3]): affected polypeptide synergistic effects

Substance: KKYKNIVLLAGLEVINDYHF ((1)..(20) An immunomodulatory polypeptide derived from the pyrin domain of human IFI16 with amino acid residue changes.) [peptide A10]
- viral inhibition (HSV-1 GFP): ~100%
- antiviral effect compared with polypeptide NO. 6 at increased MOI (HSV-1 GFP; HSV-1 GFP MOI 0.1, 25 μg/mL, 48 hpi): increased effect
- secretion of interleukin IL6 (STING activation [2]): damped IL6 secretion
- secretion of the chemokine CXCL10 (STING activation [2]): without affecting CXL10 responses
- type I IFN responses (STING activation [2]): significantly increased type I IFN responses
- synergistic effect of supporting STING activation: induction of type I IFNs (STING activation [3]): affected polypeptide synergistic effects

Substance: KKYKNIVLLKALEVINDYHF ((1)..(20) An immunomodulatory polypeptide derived from the pyrin domain of human IFI16 with amino acid residue changes.) [peptide A11]
- secondary structure from CD spectrum [4]: random coil-coil formation
- synergistic effect of supporting STING activation: CXCL10 cytokine secretion (STING activation [3]): strongly affected the synergistic effects

Substance: KKYKNIVLLKGAEVINDYHF ((1)..(20) An immunomodulatory polypeptide derived from the pyrin domain of human IFI16 with amino acid residue changes.) [peptide A12]
- synergistic effect of supporting STING activation: induction of type I IFNs (STING activation [3]): affected polypeptide synergistic effects

Substance: KKYKNIVLLKGLAVINDYAA ((1)..(20) An immunomodulatory polypeptide derived from the pyrin domain of human IFI16 with amino acid residue changes.) [peptide 107]
- CXCL10 secretion (STING activity): supported increased IFN and CXCL10 secretion
- IFN secretion (STING activity): supported increased IFN and CXCL10 secretion
- IL6 response (STING activity): impaired the IL6 response

Substance: KKYKNIVLLKGLAVINDYHF ((1)..(20) An immunomodulatory polypeptide derived from the pyrin domain of human IFI16 with amino acid residue changes.) [peptide A13]
- secondary structure from CD spectrum [4]: random coil-coil formation
- secretion of the chemokine CXCL10 (STING activation [2]): without affecting CXL10 responses
- type I IFN responses (STING activation [2]): significantly increased type I IFN responses
- synergistic effect of supporting STING activation: CXCL10 cytokine secretion (STING activation [3]): strongly affected the synergistic effects
- synergistic effect of supporting STING activation: induction of type I IFNs (STING activation [3]): affected polypeptide synergistic effects

Substance: KKYKNIVLLKGLEAINDYHF ((1)..(20) An immunomodulatory polypeptide derived from the pyrin domain of human IFI16 with amino acid residue changes.) [peptide A14]
- viral inhibition of alanine variant compared with SEQ ID NO.6 (HSV-1 GFP): decreased

Substance: KKYKNIVLLKGLEVANDYHF ((1)..(20) An immunomodulatory polypeptide derived from the pyrin domain of human IFI16 with amino acid residue changes.) [peptide A15]
- secretion of interleukin IL6 (STING activation [2]): prohibited the synergistic effects

Substance: KKYKNIVLLKGLEVIADYHF ((1)..(20) An immunomodulatory polypeptide derived from the pyrin domain of human IFI16 with amino acid residue changes.) [peptide A16]
- secretion of interleukin IL6 (STING activation [2]): prohibited the synergistic effects

Substance: KKYKNIVLLKGLEVINAYHF ((1)..(20) An immunomodulatory polypeptide derived from the pyrin domain of human IFI16 with amino acid residue changes.) [peptide A17]
- viral inhibition (HSV-1 GFP): ~100%

Substance: KKYKNIVLLKGLEVINDYAF ((1)..(20) An immunomodulatory polypeptide derived from the pyrin domain of human IFI16 with amino acid residue changes.) [peptide A19]
- synergistic effect of supporting STING activation: CXCL10 cytokine secretion (STING activation [3]): strongly affected the synergistic effects

Substance: KKYKNIVLLKGLEVINDYHA ((1)..(20) An immunomodulatory polypeptide derived from the pyrin domain of human IFI16 with amino acid residue changes.) [peptide A20]
- synergistic effect of supporting STING activation: CXCL10 cytokine secretion (STING activation [3]): strongly affected the synergistic effects

Substance: KKYKNIVLLKGLEVINDYHF-NH2 [peptide 101]
- toxicity in human fibroblast (human fibroblast; HSV-1 GFP, HSV-2 GFP (MOI 0.05) or uninfected): no toxicity
- maximum cell death percentage (human fibroblast; highest peptide concentration utilized (80 μg/mL)): less than 10%
